Reference: paper PMC8086144, “A novel peptide antagonist of the human growth hormone receptor” (The Journal of Biological Chemistry, 2021)

Legend:
hPRLR [1] = target: T1, hPRLR (Homo sapiens, UniProt P16471); assay: hPRL-induced pSTAT5 in MALME-3M cells, Western blot; format: cell-based; conditions: 2.5 nM hPRL, 20 min, S1H concentration not given
T1 construct: T84 cells express high levels of hPRLR relative to hGHR (>1300:1); host or cells: T84 (human colon cancer), MALME-3M (human melanoma)
T1 sequence (P16471 25-622): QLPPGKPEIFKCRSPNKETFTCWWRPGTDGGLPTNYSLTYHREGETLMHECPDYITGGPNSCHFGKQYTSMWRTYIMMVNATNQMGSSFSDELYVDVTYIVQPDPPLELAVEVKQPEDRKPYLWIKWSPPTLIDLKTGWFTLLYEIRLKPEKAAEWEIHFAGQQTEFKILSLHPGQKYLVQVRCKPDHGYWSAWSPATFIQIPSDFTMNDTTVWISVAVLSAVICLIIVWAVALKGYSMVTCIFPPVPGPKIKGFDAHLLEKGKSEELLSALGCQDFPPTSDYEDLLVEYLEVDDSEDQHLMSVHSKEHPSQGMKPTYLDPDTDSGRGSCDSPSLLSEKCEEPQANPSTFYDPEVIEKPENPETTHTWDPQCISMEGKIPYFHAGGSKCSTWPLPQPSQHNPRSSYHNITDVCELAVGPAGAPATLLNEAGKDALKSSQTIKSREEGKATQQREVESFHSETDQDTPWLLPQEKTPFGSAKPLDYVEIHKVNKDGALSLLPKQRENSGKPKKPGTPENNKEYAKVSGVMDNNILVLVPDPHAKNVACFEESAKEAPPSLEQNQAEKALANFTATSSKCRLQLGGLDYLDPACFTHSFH
Experimental: (§1) SK-MEL-28, MALME-3M, and T84 cells were grown and maintained in Eagle's Minimal Essential Medium. IM9 and L cells were grown in RPMI-1640 media and Dulbecco's modified Eagle's medium, respectively. All growth media was supplemented with 10% fetal bovine serum and 1× antibiotic-antimycotic […] solution. Cells were grown at 37 °C under a 5% CO2 atmosphere in a humidified incubator, and growth media was replaced every 48 h during incubation. No hGH was present in or added to the growth media unless specifically indicated. […]
(§2) Following treatment, the cells were harvested at the indicated time points, and the total protein was extracted. […] Sample protein concentration was quantified using a Bradford assay with bovine serum albumin as the protein standard. Absorbance at 595 nm was measured using a Spectramax 250 multimode plate reader (Molecular Devices) and processed using SoftmaxPro v4.7.1 software.
(§3) Cytosolic fractions from treated cells were thawed on ice, and 80 μg protein was loaded onto polyacrylamide gels for separation by SDS-PAGE. […] Chemiluminescence signals were detected using a GelDoc (BioRad) fluorescence imager. […]

hPRLR [2] = target: T1, hPRLR; assay: hPRL-induced pSTAT5 in T84 cells, Western blot; format: cell-based; conditions: 2.5 nM hPRL, 20 min, S1H concentration not given
Experimental: as §1, §2, §3

## CC[C@H](C)[C@H](NC(=O)[C@H](Cc1ccc(O)cc1)NC(C)=O)C(=O)N1CCC[C@H]1C(=O)N[C@@H](CCCCN)C(=O)N[C@@H](CCC(=O)O)C(=O)N[C@@H](CCC(N)=O)C(=O)N[C@@H](CCCCN)C(=O)N[C@@H](Cc1ccc(O)cc1)C(=O)N[C@@H](CO)C(=O)N[C@@H](Cc1ccccc1)C(=O)N[C@@H](CC(C)C)C(=O)N[C@@H](CCC(N)=O)C(=O)N[C@@H](CC(N)=O)C(=O)N1CCC[C@H]1C(=O)N[C@@H](CCC(N)=O)C(=O)N[C@H](C(N)=O)[C@@H](C)O [S1H]
hPRLR [1]
  inhibition of hPRL-induced pSTAT5: 49%
hPRLR [2]
  inhibition of hPRL-induced pSTAT5: 13%
